The record followed here is patent publication US6635641B2 (Agouron Pharmaceuticals, Inc., priority 2000, dated 2003).

Where a name gives a salt, the structure may show the parent alone. Read-outs that look alike come from different tables or passages of the source.

Series [1] deals with T1, unphosphorylated VEGF-R2Δ50 (FLVK) (Homo sapiens, UniProt P35968, DEL940-989/E990V).
T1 construct: VEGF-R2Δ50 contains residues 806-939 and 990-1171; made in house; host or cells: baculovirus/insect cells
Briefly: VEGF-R2 coupled spectrophotometric assay, unphosphorylated construct (FLVK).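 Further: Baculovirus-expressed cytosolic kinase domain, ADP formation linked via pyruvate kinase and lactate dehydrogenase to NADH oxidation, read as falling absorbance at 340 nm.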 In kind it is biochemical.

The target of series [2] is T2, TEK/Tie-2 intracellular kinase domain (Homo sapiens, UniProt Q02763).
T2 construct: residues 775 to 1124, with methionine added at the N-terminus; made in house; host or cells: baculovirus expression system
T2 sequence (Q02763 775-1124): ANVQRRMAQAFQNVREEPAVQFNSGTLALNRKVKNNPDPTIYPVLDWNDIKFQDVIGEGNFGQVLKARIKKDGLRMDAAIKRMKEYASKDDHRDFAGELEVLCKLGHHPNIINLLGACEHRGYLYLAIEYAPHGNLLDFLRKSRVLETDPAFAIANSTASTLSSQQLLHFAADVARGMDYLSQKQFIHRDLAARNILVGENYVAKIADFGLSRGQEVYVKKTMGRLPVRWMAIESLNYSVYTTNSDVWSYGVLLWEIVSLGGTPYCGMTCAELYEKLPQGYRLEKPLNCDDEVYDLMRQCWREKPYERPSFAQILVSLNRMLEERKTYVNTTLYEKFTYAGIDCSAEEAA
The series can be described thus: TEK/Tie-2 spectrophotometric assay. In kind it is biochemical. The settings on record: read-out: TEK-P percent inhibition. On the procedure:
The intracellular kinase domain (residues 775 to 1124, with methionine added at the N-terminus) of human TEK/Tie-2 was expressed using the baculovirus vector expression system. For assay purposes, the enzyme was autophosphorylated prior to use by incubation overnight at 4° C., at 10 μM enzyme concentration, with 4 mM ATP, 40 mM MgCl2, and 5 mM DTT in 200 mM Hepes buffer at ph 7.5, in 90:10 water:glycerol.
The production of ADP from ATP that accompanies phosphoryl transfer was coupled to oxidation of NADH using phosphoenolpyruvate (PEP) and a system having pyruvate kinase (PK) and lactic dehydrogenase (LDH). The oxidation of NADH was monitored by following the decrease of absorbance at 340 nm (e340=6.22 cm^−1 mM^−1) using a Beckman DU 650 spectrophotometer. Assay conditions for phosphorylated VEGF-R2Δ50 (indicated as FLVK-P in the tables below) were the following: 1 mM PEP; 250 μM NADH; 50 units of LDH/mL; 20 units of PK/mL; 5 mM DTT; 5.1 mM poly(E4Y1); 1 mM ATP; and 25 mM MgCl2 in 200 mM Hepes, pH 7.5. Assay conditions for unphosphorylated VEGF-R2Δ50 (indicated as FLVK in the tables) were the following: 1 mM PEP; 250 μM NADH; 50 units of LDH/mL; 20 units of PK/mL; 5 mM DTT; 20 mM poly(E4Y1); 3 mM ATP; and 60 mM MgCl2 and 2 mM MnCl2 in 200 mM Hepes, pH 7.5. Assays were initiated with 5 to 40 nM of enzyme. Ki values were determined by measuring enzyme activity in the presence of varying concentrations of test compounds. The data were analyzed using Enzyme Kinetic and Kaleidagraph software.
The spectrophotometric assay was carried out as described above for VEGF-R2, except for the following changes in concentration: TEK/Tie-2=200 nM, MgCl2=40 mM, and ATP=2 mM.

The target in series [3] is T3, FGF-R1 intracellular kinase domain (Homo sapiens, UniProt P11362, C488A/C584S/L457V).
T3 construct: starting from the endogenous methionine residue 456 to glutamate 766; made in house; host or cells: baculovirus expression system
T3 sequence (P11362 456-766 L457V/C488A/C584S): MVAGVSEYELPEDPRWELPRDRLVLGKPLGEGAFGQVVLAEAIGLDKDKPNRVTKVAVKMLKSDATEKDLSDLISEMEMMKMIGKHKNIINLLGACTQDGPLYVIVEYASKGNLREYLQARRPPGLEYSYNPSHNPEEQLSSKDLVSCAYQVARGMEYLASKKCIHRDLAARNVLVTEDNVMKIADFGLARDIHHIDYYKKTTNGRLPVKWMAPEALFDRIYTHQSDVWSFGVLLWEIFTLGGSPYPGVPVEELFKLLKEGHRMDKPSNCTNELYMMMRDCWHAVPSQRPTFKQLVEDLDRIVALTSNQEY
Briefly: FGF-R spectrophotometric assay. The class given is biochemical. Conditions: for inhibition at 1 µM: read-out: FGF-P percent inhibition; for Ki: read-out: FGF-P Ki.
From the text: The intracellular kinase domain of human FGF-R1 was expressed using the baculovirus vector expression system starting from the endogenous methionine residue 456 to glutamate 766, according to the residue numbering system of Mohammadi et al., Mol. Cell.
The production of ADP from ATP that accompanies phosphoryl transfer was coupled to oxidation of NADH using phosphoenolpyruvate (PEP) and a system having pyruvate kinase (PK) and lactic dehydrogenase (LDH). The oxidation of NADH was monitored by following the decrease of absorbance at 340 nm (e340=6.22 cm^−1 mM^−1) using a Beckman DU 650 spectrophotometer. […] Assays were initiated with 5 to 40 nM of enzyme. Ki values were determined by measuring enzyme activity in the presence of varying concentrations of test compounds. The data were analyzed using Enzyme Kinetic and Kaleidagraph software.
The spectrophotometric assay was carried out as described above for VEGF-R2, except for the following changes in concentration: FGF-R=50 nM, ATP=2 mM, and poly(E4Y1)=15 mM.

Series [4] deals with human umbilical vein endothelial cells (HUVEC). The series can be described thus: HUVEC proliferation assay (VEGF-stimulated, MTT). In kind it is cell-based. Conditions: Homo sapiens. The procedure, abridged: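 Exponentially growing HUVEC (passage 3-4) were serum-starved 24 h in F12K + 1% FBS, given test compound (final DMSO 0.1%), then stimulated 1 h later with VEGF at 6 ng/ml final. Proliferation read after 72 h by 4 h MTT dye reduction, absorbance at 595.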

The target of another series is T4, LCK tyrosine kinase (Homo sapiens, UniProt P06239, C224D/P223M).
T4 construct: starting from amino acid residue 223 to the end of the protein at residue 509; made in house; host or cells: insect cells
T4 sequence (P06239 223-509 P223M/C224D): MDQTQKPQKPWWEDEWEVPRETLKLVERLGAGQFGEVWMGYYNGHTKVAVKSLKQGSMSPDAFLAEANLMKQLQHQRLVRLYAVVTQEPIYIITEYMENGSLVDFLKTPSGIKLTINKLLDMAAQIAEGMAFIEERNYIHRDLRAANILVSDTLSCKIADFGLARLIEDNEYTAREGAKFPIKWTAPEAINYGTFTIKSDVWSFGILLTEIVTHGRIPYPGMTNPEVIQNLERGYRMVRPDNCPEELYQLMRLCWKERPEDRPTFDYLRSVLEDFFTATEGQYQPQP
The series can be described thus: LCK spectrophotometric assay.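 On all read-outs here: recombinant LCK kinase activity on poly(E4Y1), ADP formation coupled through PK/LDH to NADH oxidation, followed as absorbance loss at 340 nm.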 In kind it is biochemical. The settings on record: for inhibition at 1 µM: read-out: LCK-P percent inhibition; for Ki: read-out: LCK-P Ki.

Series [5] relates to lung cancer cells (line MV522). The series can be described thus: Cancer cell proliferation (MV522) assay (MTT). In kind it is cell-based. The procedure, abridged:
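Proliferation was read by MTT reduction 72 h after compound addition, in a 4-day protocol with no starvation step. Two thousand MV522 cells were seeded in RPMI1640 with 10% FBS and 2 mM glutamine and given 1 day to attach before dosing.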

The next series deals with T5, FL-CHK-1 (Homo sapiens, UniProt O14757).
T5 construct: C-terminally His-tagged full-length human CHK-1 (FL-CHK-1); made in house; host or cells: baculovirus/insect cells
T5 sequence (O14757 1-476): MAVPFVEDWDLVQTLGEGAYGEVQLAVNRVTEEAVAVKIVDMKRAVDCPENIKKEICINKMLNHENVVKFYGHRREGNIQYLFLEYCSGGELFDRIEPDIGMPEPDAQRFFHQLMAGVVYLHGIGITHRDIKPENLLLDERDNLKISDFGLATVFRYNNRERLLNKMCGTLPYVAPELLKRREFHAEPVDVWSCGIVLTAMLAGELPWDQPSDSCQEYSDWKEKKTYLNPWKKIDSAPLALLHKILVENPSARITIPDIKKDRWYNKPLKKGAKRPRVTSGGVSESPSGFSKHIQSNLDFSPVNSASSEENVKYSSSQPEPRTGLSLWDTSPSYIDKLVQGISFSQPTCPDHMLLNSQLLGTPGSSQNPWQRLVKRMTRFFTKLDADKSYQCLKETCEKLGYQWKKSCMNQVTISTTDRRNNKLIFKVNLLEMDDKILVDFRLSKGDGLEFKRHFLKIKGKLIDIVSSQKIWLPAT
The series can be described thus: CHK-1 coupled spectrophotometric assay (Syntide-2). In kind it is biochemical. The source says:
C-terminally His-tagged full-length human CHK-1 (FL-CHK-1) was expressed using the baculovirus/insect cell system. It contains 6 histidine residues (6×His-tag) at the C-terminus of the 476 amino acid human CHK-1. The protein was purified by conventional chromatographic techniques.
The production of ADP from ATP that accompanies phosphoryl transfer to the synthetic substrate peptide Syntide-2 ([…]) was coupled to oxidation of NADH using phosphoenolpyruvate (PEP) through the actions of pyruvate kinase (PK) and lactic dehydrogenase (LDH). The oxidation of NADH was monitored by following the decrease of absorbance at 340 nm (ε340=6.22 cm−1 mM^−1) using a HP8452 spectrophotometer. Typical reaction solutions contained: […]; 0.15 mM NADH; 28 units of LDH/ml; 16 units of PK/ml; 3 mM DTT; 0.125 mM Syntide-2; 0.15 mM ATP; 25 mM MgCl2 in 50 mM TRIS, pH 7.5; and 400 mM NaCl. Assays were initiated with 10 nM of FL-CHK-1. Ki values were determined by measuring initial enzyme activity in the presence of varying concentrations of test compounds. The data were analyzed using Enzyme Kinetic and Kaleidagraph software.

Series [6] addresses T6, phosphorylated VEGF-R2Δ50 (FLVK-P) (Homo sapiens, UniProt P35968, DEL940-989/E990V).
T6 construct: VEGF-R2Δ50 contains residues 806-939 and 990-1171; made in house; host or cells: baculovirus/insect cells
The series can be described thus: VEGF-R2 coupled spectrophotometric assay, phosphorylated construct (FLVK-P). The class given is biochemical. The procedure, abridged:
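Baculovirus-expressed VEGF-R2Δ50 (residues 806-939/990-1171, E990V), optionally autophosphorylated; ADP formation coupled via PK/LDH to NADH oxidation at 340 nm, pH 7.5 Hepes. FLVK-P: 1 mM ATP, 5.1 mM poly(E4Y1), 25 mM MgCl2; FLVK: 3 mM ATP, 20 mM poly(E4Y1), 60 mM MgCl2, 2 mM MnCl2. Ki from activity over compound concentrations.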

Setting [7] is: HUVEC, with albumin, read-out: Huvec + Albumin IC50.
Setting [8] is: unphosphorylated VEGF-R2 construct.
Where [9] appears, read: HUVEC proliferation with albumin, read-out: Huvec + Albumin IC50.
Setting [10] is: VEGF-stimulated HUVEC proliferation, read-out: HUVEC IC50.

T6 sequence (P35968 with tags, fused parts or gaps DEL940-989/E990V limits assumed): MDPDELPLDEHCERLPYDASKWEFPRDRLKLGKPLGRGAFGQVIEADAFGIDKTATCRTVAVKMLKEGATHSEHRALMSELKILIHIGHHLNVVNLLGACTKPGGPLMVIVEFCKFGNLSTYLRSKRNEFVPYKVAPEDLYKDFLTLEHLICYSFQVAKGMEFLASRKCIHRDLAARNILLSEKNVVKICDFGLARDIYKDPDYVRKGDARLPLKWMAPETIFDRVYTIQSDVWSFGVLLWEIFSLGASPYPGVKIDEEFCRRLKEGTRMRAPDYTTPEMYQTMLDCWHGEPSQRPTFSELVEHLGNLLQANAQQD
T1 sequence (P35968 with tags, fused parts or gaps DEL940-989/E990V limits assumed): as above

In series [1], `O=C(Nc1ccc(N2CCNCC2)c(C(F)(F)F)c1)c1cccc(CCc2cc(/C=C/c3cccnc3)n[nH]2)c1` [Example F-5] registered a Ki of 0.86 nM. In addition, the results for the inhibition at 1 µM (in [2]; in series [3]; at LCK tyrosine kinase) were 56%, 69% and 84%, respectively. Further, the IC50 turned out to be 4.1 nM in series [4] (HUVEC, read-out: HUVEC IC50); 17 nM in [4] (setting [7]); 1400 nM in [5] (MV522).

As for `Cc1ccc2cc(NC(=O)c3cccc(OCc4cncc5ccccc45)c3)ccc2n1` [Example K-3, 3-(Isoquinolin-4-yl)methoxy-N-(2-methyl-quinolin-6-yl)-benzamide hydrochloride], the figures for the Ki (at FL-CHK-1; in series [1]; in series [6]) were 26000 nM, 3.4 nM and 1.66 nM, respectively. In addition, the IC50 in [4] (HUVEC, read-out: HUVEC IC50) is 430 nM; in [5] (MV522), greater than 10000 nM.

In the case of `COc1ccc(Nc2cc(CCc3cccc(C(=O)Nc4ccc(N5CCCC5)c(C(F)(F)F)c4)c3)[nH]n2)cn1` [Example G-8, 3-{2-[5-(6-Methoxypyridin-3-yl)amino-2H-pyrazol-3-yl]-ethyl}-N-(4-pyrrolidin-1-yl-3-trifluoromethylphenyl)benzamide], the Ki in series [1] worked out at 0.035 nM; in [6] it was 0.73 nM; in series [3], 20 nM; on LCK tyrosine kinase, 5.8 nM. The inhibition at 1 µM in series [2] stood at 62%. In addition, the IC50 in [4] (HUVEC, read-out: HUVEC IC50) turned out to be 12 nM; in series [4] (setting [7]), 114 nM; in series [5] (MV522), 8700 nM.

Turning to `COc1ccc(Nc2cc(CCc3cccc(C(=O)Nc4cc(Cl)c(N(C)C)c(Cl)c4)c3)[nH]n2)cn1` [Example G-7, N-(3,5-Dichloro-4-dimethylaminophenyl)-3-{2-[5-(6-methoxy-pyridin-3-yl)amino-2H-pyrazol-3-yl]ethyl}benzamide], the Ki in series [1] was found to be 0.25 nM; in series [6], 0.65 nM; in [3], 23 nM; on LCK tyrosine kinase, 27 nM. For the same molecule, the inhibition at 1 µM in series [2] is 14%. In addition, the IC50 in series [4] (HUVEC, read-out: HUVEC IC50) is 17 nM; in [4] (setting [7]), 190 nM; in [5] (MV522), greater than 10000 nM.

Turning to `CC(C)(C)c1cc(C(=O)Nc2cccc(OCc3cccnc3)c2)ccc1O` [Example X-4, 3-t-Butyl-4-hydroxy-N-[3-(pyridin-3-ylmethoxy)-phenyl]-benzamide], the melting point was in the range of 104 to 107 °C. For the same molecule, in series [1] (setting [8]), the affinity, expressed as Ki, was 4.1 nM. Also, the inhibition at 1 µM in series [3] is 11%. Besides, the IC50 in series [4] (setting [9]) is greater than 1000 nM. For the same molecule, the IC50 in series [4] (setting [10]) turned out to be 71 nM. The inhibition at 1 µM on LCK tyrosine kinase is 11%. In series [5] (MV522 lung cancer cells), this molecule registered an IC50 of 6100 nM.

On to `COc1ccc(Nc2cc(COc3cc(C(=O)Nc4ccc(N5CCCC5)c(C(F)(F)F)c4)ccc3F)[nH]n2)cn1` [Example J-2, 4-Fluoro-3-[5-(6-methoxy-pyridin-3-yl)amino-2H-pyrazol-3-yl]methoxy-N-(4-pyrrolidin-1-yl-3-trifluoromethyl-phenyl)-benzamide], for which the results for the Ki (in [1]; in series [3]; on LCK tyrosine kinase) were 0.68 nM, 57 nM and 10.5 nM, respectively. The inhibition at 1 µM in series [2] was determined as 17%. Also, the IC50 in series [4] (HUVEC, read-out: HUVEC IC50) was 26 nM; in series [4] (setting [7]), 180 nM; in series [5] (MV522), greater than 10000 nM.

Take `CC(C)(C)c1cc(C(=O)Nc2cccc(CSc3ncnc4[nH]ncc34)c2)ccc1O` [Example V-4, N-{3-[(1H-pyrazolo[3,4-d]-pyrimidin-4-yl)sulfanylmethyl]phenyl}-(4-hydroxy-3-t-butyl)benzamide]: affinity in series [1] (setting [8]) was put at a Ki of 0.045 nM. Also, the values for the inhibition at 1 µM (in series [2]; in [3]; at LCK tyrosine kinase) were 40%, 37% and 22%, respectively. In addition, the values for the IC50 in [4] (setting [9]) and in series [4] (setting [10]) were greater than 1000 nM and 27 nM, respectively.

Molecule `O=C(Nc1ccc(N2CCNCC2)c(C(F)(F)F)c1)c1ccc(F)c(OCc2cccnc2)c1` [Example R-13, 4-Fluoro-N-[4-(piperazin-1-yl)-3-trifluoromethylphenyl]-3-(pyridin-3-yl)methoxybenzamide] displayed a melting point of 123 to 131 °C. Also, in [1], the inhibitory constant (Ki) worked out at 16.5 nM. The inhibition at 1 µM in series [3] was 7%. Moreover, the 50% inhibitory concentration (IC50) in series [4] (HUVEC, read-out: HUVEC IC50) came out at 19 nM. Further, the IC50 in series [4] (setting [7]) turned out to be 120 nM. Also, on LCK tyrosine kinase, the inhibition at 1 µM worked out at 5%. In [5] (MV522), this molecule gave an IC50 of 1800 nM.
